{"source": "patent US20140096445A1", "about": "“METHOD OF CULTIVATION IN WATER DEFICIT CONDITIONS” (SYNGENTA PARTICIPATIONS AG, priority 2011, published 2014)", "format_in_all_cases": "in vivo", "key": {"[1]": {"test_system": "corn", "test": "Lateral-move sprinkler irrigation field study, 112 day maturity corn hybrid, Examples 24-25", "settings": "250 gai/ha, 60% irrigated deficit", "method": "Testing Procedure: A sprinkler irrigation field study was conducted on a deep silt loam soil using a 112 day maturity corn hybrid. This trial was conducted to quantify the impact of azoxystrobin and trinexapac-ethyl on grain yield, and water productivity of corn under limited (deficit) and fully-irrigated settings. The study utilized a lateral-move sprinkler irrigation (LMS) system. The study was replicated three times in an […]. Each main plot was approximately 185 sq. meters. Irrigation control panels, chemical injection pumps, and filters were housed at the irrigation well house to manage irrigation and chemigation events.\nSoil water status was monitored throughout the growing season using soil moisture sensors. Corn seed was planted with a precision planter at a depth of 2 inches and rows spaced at 30 inches. The planting population was 30,000 seeds per acre. Testing parameters, and irrigation levels were conducted according to the Kansas State University experimental procedure [see e.g., (1) Lamm, F. R., A. J. Schlegel, and G. A. Clark. 2003. Development of a Best Management Practice for Nitrogen Fertigation of Corn Using SDI. Appl. Engr in Agric. and (2) Lamm, F. R., H. L. Manges, L. R. Stone, A. H. Khan, and D. H. Rogers. 1995. Water requirement of subsurface drip-irrigated corn in northwest Kansas. Trans. ASAE, 38(2):441-448.]. Moisture levels, irrigation levels, evapotranspiration, and plant health were measured throughout the growing season. Climatic variables were measured (air temperature, rainfall, solar and net radiation, relative humidity, rainfall, wind speed and direction) throughout the season. Irrigation for the fully irrigated treatments was scheduled according to need by a climatic water budget using calculated evapotranspiration as a withdrawal and with rainfall and irrigation as deposits. Irrigation amounts for each event for the fully irrigated plots were generally 0.96 inches for each event. The deficit irrigation treatments were scheduled at approximately 60% of the fully irrigated plots. Volumetric soil water content was measured in one-foot increments to a depth of 8 ft on an approximately weekly basis throughout the crop season to determine total water use. Crop water use was calculated as the sum of irrigation, precipitation and changes in soil water between the initial and final soil water sampling dates. Water productivity (WUE) was calculated as the crop yield divided by the seasonal water use (Water Productivity (WP)=Yield/ETc). […] Crop yield from each replication was recorded after harvest and adjusted to 15% moisture content. Corn yield components of crop grain yield, plants/area, ears/plant, and kernel weight were measured by hand harvesting a representative sample."}, "[2]": {"test_system": "corn", "test": "Subsurface drip irrigation (SDI) chemigation field study, limited (deficit) vs fully irrigated, Examples 1-2", "settings": "261 gai/ha, 50% irrigated deficit"}, "[3]": {"test_system": "soybean", "test": "Sprinkler irrigation field study on soybean yield and WUE, Table 14 (treatments 31-32)"}, "[4]": {"test_system": "corn", "test": "SDI chemigation field study under dryland/rainfed conditions, Examples 15-16", "settings": "261 gai/ha, 0% irrigated rainfed/dryland"}, "[5]": {"test_system": "corn", "test": "Lateral-move sprinkler irrigation field study, 113 day maturity corn hybrid, Examples 11-12", "settings": "261 gai/ha, 60% irrigated deficit"}, "[6]": {"settings": "Azoxy 150 gai/ha foliar, 2 applications, alone or + Acibenzolar-S-methyl 10 gai/ha, 60% irrigated deficit"}}}
{"compound": "CCOC(=O)C1CC(=O)C(=C(O)C2CC2)C(=O)C1", "note": "(stereo not shown) [TXP, trinexapac-ethyl]", "values": [{"measurement": "% IWUE Increase over Untr./60% irr.", "setting": "[1]", "value": "+5% over"}, {"measurement": "% Yield Increase over Untr./60% irr.", "setting": "[1]", "value": "+3.5% over"}, {"measurement": "IWUE (water productivity)", "setting": "[1]", "value": 484, "unit": "lbs/acre inch"}, {"measurement": "Yield", "setting": "[1]", "value": 209, "unit": "Bu./acre"}]}
{"compound": "CO/C=C(/C(=O)OC)c1ccccc1Oc1cc(Oc2ccccc2C#N)ncn1", "note": "[Azoxystrobin, azoxystrobin]", "values": [{"measurement": "Yield", "setting": "[2]; SDI chemigated twice (V8 & V8+14da.)", "value": 217, "unit": "Bu./acre"}, {"measurement": "Azoxystrobin % IWUE Increase over Untr./50% Irr.", "setting": "[2]; SDI chemigated", "value": "+40% incr."}, {"measurement": "Azoxystrobin % IWUE Increase over Untr./100% irr.", "setting": "[2]; SDI chemigated", "value": "+114% incr."}, {"measurement": "Azoxystrobin % Yield Increase over Untr./50% Irr.", "setting": "[2]; SDI chemigated", "value": "+11% incr."}, {"measurement": "Azoxystrobin % Yield Increase over Untr./100% irr.", "setting": "[2]; SDI chemigated", "value": "+2.4% incr."}, {"measurement": "IWUE (irrigation water use efficiency)", "setting": "[2]; SDI chemigated", "value": 22.9, "unit": "Bu./inch"}, {"measurement": "Azoxystrobin % IWUE Increase over Untr./100% irr.", "setting": "[2]; SDI chemigated, listed as Quadris", "value": 114, "unit": "%"}, {"measurement": "Yield", "setting": "[2]; foliar applied twice (V8 & V8+14da.)", "value": 211, "unit": "Bu./acre"}, {"measurement": "Azoxystrobin % IWUE Increase over Untr./50% Irr.", "setting": "[2]; foliar applied", "value": "+29% incr."}, {"measurement": "Azoxystrobin % IWUE Increase over Untr./100% irr.", "setting": "[2]; foliar applied", "value": "+97% incr."}, {"measurement": "Azoxystrobin % Yield Increase over Untr./50% Irr.", "setting": "[2]; foliar applied", "value": "+11% incr."}, {"measurement": "Azoxystrobin % Yield Increase over Untr./100% irr.", "setting": "[2]; foliar applied", "value": "+0% incr. over"}, {"measurement": "IWUE (irrigation water use efficiency)", "setting": "[2]; foliar applied", "value": 21.1, "unit": "Bu./inch"}, {"measurement": "% WUE Increase over the 100% irrigated Control", "setting": "[3]; [6]", "value": 11, "unit": "% Increase"}, {"measurement": "Treatment % Yield Increase over 60% Untreated", "setting": "[3]; [6]", "value": "+6% Incr."}, {"measurement": "Treatment % Yield Increase over 100% Untreated", "setting": "[3]; [6]", "value": "+11% Incr."}, {"measurement": "WUE (water productivity)", "setting": "[3]; [6]", "value": 4.1, "unit": "bushels/acre-inch"}, {"measurement": "Yield", "setting": "[3]; [6]", "value": 72, "unit": "Bu./acre"}, {"measurement": "Yield compared with the untreated, in words", "setting": "[3]; Azoxystrobin: foliar (2 applications) at 60% & 100% irrigated", "value": "significant differences in yield"}, {"measurement": "WUE differences, in words", "setting": "[3]; water deficit regime", "value": "Good WUE differences"}, {"measurement": "Yield", "setting": "[4]; SDI chemigated (V6 & R1)", "value": 166.2, "unit": "Bu./acre"}, {"measurement": "Azoxystrobin % CWUE Increase over Untr./0% irr.", "setting": "[4]; SDI chemigated", "value": "+142% incr over"}, {"measurement": "Azoxystrobin % Yield Increase over Untr./0% irr.", "setting": "[4]; SDI chemigated", "value": "+9.6% incr over"}, {"measurement": "CWUE (crop water use efficiency)", "setting": "[4]; SDI chemigated", "value": 1.125, "unit": "Bu./inch"}, {"measurement": "Yield", "setting": "[4]; foliar applied (V6 & R1)", "value": 161.8, "unit": "Bu./acre"}, {"measurement": "Azoxystrobin % CWUE Increase over Untr./0% irr.", "setting": "[4]; foliar applied", "value": "+108% incr over"}, {"measurement": "Azoxystrobin % Yield Increase over Untr./0% irr.", "setting": "[4]; foliar applied", "value": "+6.7% incr over"}, {"measurement": "CWUE (crop water use efficiency)", "setting": "[4]; foliar applied", "value": 0.965, "unit": "Bu./inch"}, {"measurement": "Azoxystrobin % IWUE Increase over Untr./60% irr.", "setting": "[5]; chemigated", "value": "+11% over"}, {"measurement": "Azoxystrobin % Yield Increase over Untr./60% irr.", "setting": "[5]; chemigated", "value": "+5% over"}, {"measurement": "IWUE (water productivity)", "setting": "[5]; chemigated", "value": 515, "unit": "lbs/acre inch"}, {"measurement": "Yield", "setting": "[5]; foliar applied (V6 & R1)", "value": 239, "unit": "Bu./acre"}, {"measurement": "Azoxystrobin % IWUE Increase over Untr./60% irr.", "setting": "[5]; foliar applied", "value": "+16% over"}, {"measurement": "Azoxystrobin % Yield Increase over Untr./60% irr.", "setting": "[5]; foliar applied", "value": "+7% over"}, {"measurement": "IWUE (water productivity)", "setting": "[5]; foliar applied", "value": 540, "unit": "lbs/acre inch"}, {"measurement": "Yield", "setting": "[5]; sprinkler chemigated (V6 & R1)", "value": 236, "unit": "Bu./acre"}]}
